Measurements published in US11319299B2, “Substituted carboxamides as inhibitors of WDR5 protein-protein binding” (PROPELLON THERAPEUTICS INC., priority 2016, dated 2022).
pKd: −log10 of the molar value.

molecular target: WDR5 (Homo sapiens (Human), UniProt P61964); experiment: Surface Plasmon Resonance (SPR) assay, KD and residence time; type: binding; conditions: surface plasmon resonance (SPR) assay; read-out: WDR5 binding affinity (KD)
Method: (i) Surface Plasmon Resonance (SPR) Assay
The lifetime of a drug on its target is determined by two rate constants: the association rate constant (kon) and the dissociation rate constant (koff). In principle, the lifetime of the binary drug—target complex is thus extended by a rapid rate of drug binding and/or a slow rate of drug—target complex dissociation. The in vivo lifetime of a drug-target complex is most critically dependent on the value of the koff [Nat. Rev. Drug Discov. […] Drug Discov. […] Drug-target residence time is defined as the reciprocal of koff (τ=1/koff), making the residence time a parameter that is easily measured by routine in vitro assay methods.

SMILES	pKd
CC1CN(c2cc(F)c(-c3ccc(N4CCN(C)CC4)cc3)cc2NC(=O)c2cn(C)c(=O)cc2C(F)(F)F)CCN1C (stereo in doubt) [Example 302, N-[4-fluoro-5-[4-(4-methylpiperazin-1-yl)phenyl]-2-[(3R)-3,4-dimethylpiperazin-1-yl]phenyl]-1-methyl-6-oxo-4-(trifluoromethyl)pyridine-3-carboxamide]	8.27
CC1CN(c2cc(F)c(-c3cnc(N4CCN(C)CC4)nc3)cc2NC(=O)c2ccc(F)cc2C(F)(F)F)CCN1C (stereo in doubt) [Example 316, 4-fluoro-N-[4-fluoro-5-[2-(4-methylpiperazin-1-yl)pyrimidin-5-yl]-2-[(3R)-3,4-dimethylpiperazin-1-yl]phenyl]-2-(trifluoromethyl)benzamide]	9.00
CC1CN(c2cc(F)c(-c3cnc(N4CC(C)(C)OC(C)(C)C4)nc3)cc2NC(=O)c2c[nH]c(=O)cc2C(F)(F)F)CCN1C (stereo in doubt) [Example 319, N-[4-fluoro-2-[(3R)-3,4-dimethylpiperazin-1-yl]-5-[2-(2,2,6,6-tetramethylmorpholin-4-yl)pyrimidin-5-yl]phenyl]-6-oxo-4-(trifluoromethyl)-1H-pyridine-3-carboxamide]	8.79
CC1CN(c2cc(F)c(-c3ccc(N4CCOCC4)nc3)cc2NC(=O)c2c[nH]c(=O)cc2C(F)F)CCN1C (stereo in doubt) [Example 331, 4-(difluoromethyl)-N-[4-fluoro-5-(6-morpholin-4-ylpyridin-3-yl)-2-[(3R)-3,4-dimethylpiperazin-1-yl]phenyl]-6-oxo-1H-pyridine-3-carboxamide]	8.70
C[C@@H]1CN(c2cc(F)c(-c3cnc(N4CCOC[C@H]4C)nc3)cc2NC(=O)c2c[nH]c(=O)cc2C(F)(F)F)CCN1C (stereo in doubt) [Example 337, N-[4-fluoro-2-[(3R)-3,4-dimethylpiperazin-1-yl]-5-[2-[(3R)-3-methylmorpholin-4-yl]pyrimidin-5-yl]phenyl]-6-oxo-4-(trifluoromethyl)-1H-pyridine-3-carboxamide]	8.94
CC1COCCN1c1ncc(-c2cc(NC(=O)c3c[nH]c(=O)cc3C(F)(F)F)c(N3C[C@@H](C)N(C)[C@@H](C)C3)cc2F)cn1 (stereo in doubt) [Example 338, N-[4-fluoro-5-[2-[(3R)-3-methylmorpholin-4-yl]pyrimidin-5-yl]-2-[(3S,5R)-3,4,5-trimethylpiperazin-1-yl]phenyl]-6-oxo-4-(trifluoromethyl)-1H-pyridine-3-carboxamide]	8.68
CC(C)[C@@H]1CN(c2ncc(-c3cc(NC(=O)c4c[nH]c(=O)cc4C(F)(F)F)c(N4CCN(C)[C@H](C)C4)cc3F)cn2)CCO1 (stereo in doubt) [Example 347, N-[4-fluoro-2-[(3R)-3,4-dimethylpiperazin-1-yl]-5-[2-[(2R)-2-propan-2-ylmorpholin-4-yl]pyrimidin-5-yl]phenyl]-6-oxo-4-(trifluoromethyl)-1H-pyridine-3-carboxamide]	9.22
CC1CN(c2cc(F)c(-c3cnc(N4CCOC(C)(C)C4)nc3)cc2NC(=O)c2c[nH]c(=O)cc2C(F)(F)F)CCN1C (stereo in doubt) [Example 349, N-[5-[2-(2,2-dimethylmorpholin-4-yl)pyrimidin-5-yl]-4-fluoro-2-[(3R)-3,4-dimethylpiperazin-1-yl]phenyl]-6-oxo-4-(trifluoromethyl)-1H-pyridine-3-carboxamide]	8.63
C[C@@H]1CN(c2ncc(-c3cc(NC(=O)c4c[nH]c(=O)cc4C(F)(F)F)c(N4C[C@@H](C)N(C)[C@H](C)C4)cc3F)cn2)C[C@H](C)O1 (stereo in doubt) [Example 356, N-[4-fluoro-5-[2-[(2R,6S)-2,6-dimethylmorpholin-4-yl]pyrimidin-5-yl]-2-[(3R,5R)-3,4,5-trimethylpiperazin-1-yl]phenyl]-6-oxo-4-(trifluoromethyl)-1H-pyridine-3-carboxamide]	7.70
C[C@@H]1CN(c2cc(F)c(-c3ccc(N4CCOCC4)c(F)c3)cc2NC(=O)c2c[nH]c(=O)cc2C(F)(F)F)C[C@@H](C)N1C (stereo in doubt) [Example 357, N-[4-fluoro-5-(3-fluoro-4-morpholin-4-ylphenyl)-2-[(3R,5R)-3,4,5-trimethylpiperazin-1-yl]phenyl]-6-oxo-4-(trifluoromethyl)-1H-pyridine-3-carboxamide]	6.88
C[C@@H]1CN(c2cc(F)c(-c3cnc(N(C)[C@@H]4CCOC4)nc3)cc2NC(=O)c2c[nH]c(=O)cc2C(F)(F)F)CCN1C (stereo in doubt) [Example 362, N-[4-fluoro-5-[2-[methyl-[(3R)-oxolan-3-yl]amino]pyrimidin-5-yl]-2-[(3R)-3,4-dimethylpiperazin-1-yl]phenyl]-6-oxo-4-(trifluoromethyl)-1H-pyridine-3-carboxamide]	9.61
C[C@@H]1CN(c2cc(F)c(-c3cnc(N(C)C4CCOC4)nc3)cc2NC(=O)c2c[nH]c(=O)cc2C(F)(F)F)C[C@H](C)N1C (stereo in doubt) [Example 363, N-[4-fluoro-5-[2-[methyl-[(3R)-oxolan-3-yl]amino]pyrimidin-5-yl]-2-[(3S,5R)-3,4,5-trimethylpiperazin-1-yl]phenyl]-6-oxo-4-(trifluoromethyl)-1H-pyridine-3-carboxamide]	9.20
CC1CN(c2cc(F)c(-c3cnc(N(C)C4CCOCC4)nc3)cc2NC(=O)c2c[nH]c(=O)cc2C(F)(F)F)CCN1C (stereo in doubt) [Example 370, N-[4-fluoro-5-[2-[methyl(oxan-4-yl)amino]pyrimidin-5-yl]-2-[(3R)-3,4-dimethylpiperazin-1-yl]phenyl]-6-oxo-4-(trifluoromethyl)-1H-pyridine-3-carboxamide]	9.06
C[C@@H]1CN(c2ncc(-c3cc(NC(=O)c4c[nH]c(=O)cc4C(F)(F)F)c(N4CCN(C)[C@H](C)C4)cc3F)cn2)CCO1 (stereo in doubt) [Example 389, N-[4-fluoro-2-[(3R)-3,4-dimethylpiperazin-1-yl]-5-[2-[(2R)-2-methylmorpholin-4-yl]pyrimidin-5-yl]phenyl]-6-oxo-4-(trifluoromethyl)-1H-pyridine-3-carboxamide]	9.28
CC1CN(c2ncc(-c3cc(NC(=O)c4c[nH]c(=O)cc4C(F)(F)F)c(N4C[C@@H](C)N(C)[C@@H](C)C4)cc3F)cn2)CCO1 (stereo in doubt) [Example 390, N-[4-fluoro-5-[2-[(2R)-2-methylmorpholin-4-yl]pyrimidin-5-yl]-2-[(3S,5R)-3,4,5-trimethylpiperazin-1-yl]phenyl]-6-oxo-4-(trifluoromethyl)-1H-pyridine-3-carboxamide]	9.20

same assay, conditions: surface plasmon resonance (SPR); read-out: WDR5 binding affinity (KD)

SMILES	pKd
CC1CN(c2ncc(-c3cc(NC(=O)c4c[nH]c(=O)cc4C(F)F)c(N4C[C@@H](C)N(C)[C@@H](C)C4)cc3F)cn2)CCO1 (stereo in doubt) [Example 397, 4-(difluoromethyl)-N-[4-fluoro-5-[2-[(2R)-2-methylmorpholin-4-yl]pyrimidin-5-yl]-2-[(3S,5R)-3,4,5-trimethylpiperazin-1-yl]phenyl]-6-oxo-1H-pyridine-3-carboxamide]	9.17
